# Measurements published in US12472448B2, “Compact hydroxamate-based affinity tags for artificially tagging biological macromolecules” (The Board of Trustees of the Leland Stanford Junior …, priority 2019, dated 2025).
# Assays:
# GFP = type: cell-based, S. cerevisiae; conditions: 365-nm diode, 1 minute
# Experimental: S. cervisae was made to express GFP containing isoazipropyl chloride or isoazibutyl chloride as described above. These cells were illuminated by a 365-nm diode (a Prizmatix Mic-LED-365 powered by a BLCC-02 at 0.5 ampere) for 1 minute and then cryogenically ground. Their protein was run on a denaturing SDS-PAGE gel to look for higher-molecular weight species resulting from crosslinking between the two GFP monomers (see e.g., FIG. 41).
# [1] = N-tagging of Alexa-350 ADNGK peptide with orthogonal affinity tags, reverse phase HPLC; conditions: 5 mM of each N-tag, 4 hours at 37° C., pH 7.5
# Experimental: A peptide with the sequence ADNGK (SEQ ID NO: 1) was purchased with its N-terminal Fmoc protecting group still in place. This peptide was reacted with NHS-activated fluorophore Alexa-350 (ThermoFisher, A10168) before the Fmoc group was removed using piperidine and the peptide was purified by preparative HPLC.
# We treated this peptide with the N-tags form examples 7 and 10, either separately or in combination. This labeling done for 4 hours at 37° C. with 5 mM of each N-tag, 100 mM of sodium phosphate buffered to pH 7.5 and 10% acetonitrile. The resulting species were analyzed by reverse phase HPLC (see, e.g., FIG. 14).
# [2] = tested on: modified RNase H containing a single cysteine; experiment: In vitro intraprotein photo-crosslinking, denaturing SDS-PAGE; type: biochemical; conditions: mercury arc lamp, 310-370 nm
# Excerpt: A modified RNase H containing a single cysteine was expressed, purified, alkylated with isoazipropyl chloride and repurified as above.
# The alkylated protein was illuminated with a mercury arc lamp through filters selecting for light in the 310-370-nm range.
# [3] = tested on: modified RNase H containing a single cysteine; experiment: Chemical anchoring of crosslinker to protein cysteine, Ellman's assay; type: biochemical; conditions: 10 ul crosslinker, 1 hour at 37° C., pH 8.6
# Experimental: A modified RNase H containing a single cysteine was expressed in E. coli and purified and purified by Ni-IMAC and heparin chromatography.
# To 2.75 mg of this protein in 20 ml of 100-mM bicine, 1-mM TCEP, 600-mM NaCl, 100-mM KCl, pH 8.6 was added either 0 or 10 ul of isoazipropyl chloride. These mixtures were incubated for 1 hour at 37° C. The proteins were repurified by heparin chromatography to remove TCEP and isoazipropyl chloride, and the number of free cysteines per protein was determined using Ellman's assay.
# GST = GST (Schistosoma japonicum, UniProt P08515); experiment: Photo-crosslinking of aziethyl glutathione to GST, whole-protein LCMS; type: biochemical; conditions: 1 mM, 7 mg/ml GST, 337-nm light, 30 minutes
# Experimental: Aziethyl chloride was anchored to glutathione. 25 mg of glutathione and 5 mg of TCEP were dissolved in 2 ml of methanol, 1 ml of water and 50 ul of TEA. To this were added 41 ul of the aziethyl chloride-alkene mixture synthesized in example 19. The mixture was stirred overnight, lyophilized and resuspended in 2.6 ml of water to make a 30-mM solution. This aziethyl glutathione solution was used without any purification.
# 7 mg/ml of GST was incubated with 0 or 1 mM of aziethyl glutathione. This mixture was placed beneath 337-nm light source (Laser Science, Inc. VSL-337ND-S) for either 0 or 30 minutes and then subjected to whole-protein LCMS.
# Sequence of GST (P08515 2-218): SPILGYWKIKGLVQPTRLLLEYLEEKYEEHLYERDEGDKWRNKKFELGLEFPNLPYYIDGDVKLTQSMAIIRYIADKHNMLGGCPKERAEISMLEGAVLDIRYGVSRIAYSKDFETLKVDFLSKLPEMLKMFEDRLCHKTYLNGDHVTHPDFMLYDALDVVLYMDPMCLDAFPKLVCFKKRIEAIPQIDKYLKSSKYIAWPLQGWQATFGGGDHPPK
compound,measurement,setting,value
"CC1(CCSC[C@H](N)C(=O)O)N=N1 [Isoazibutyl cysteine, isoazibutyl cysteine]",interprotein crosslinking of the proteins,GFP,8%
"CC1(CSC[C@H](N)C(=O)O)N=N1 [Isoazipropyl cysteine, isoazipropyl cysteine]",interprotein crosslinking of the proteins,GFP,2%
C[C@@H]1NC(=O)N[C@@H]1CCCCCC(=O)N(C)Cc1cccc(C=O)n1 [compound 10],labeling of peptide N-termini,[1],efficiently label the peptides
O=Cc1cccc(C(=O)NO)n1 [hydroxamate affinity tag],labeling of peptide N-termini,[1],efficiently label the peptides
"NC(=O)CI [iodoacetamide, reference compound]",appearance of faster-migrating band (intramolecular crosslink),[2],did not appear
CC1(CCl)N=N1 [isoazipropyl chloride],appearance of faster-migrating band (intramolecular crosslink),[2],new faster-migrating band to appear
same,free cysteines per protein,[3],0.15
same,protein's cysteines anchored by the crosslinker,[3],85%
allylcysteine [reference compound],interprotein crosslinking of the proteins,GFP,lack of similar crosslinking
aziethyl glutathione,GST molecules shifted as expected from covalent crosslinking,GST,40%
